Measurements reported in US20250085300A1, “STABILITY-ENHANCING COMPOSITIONS AND METHODS OF PREPARING COMPOUNDS” (FOGHORN THERAPEUTICS INC., priority 2021, published 2025).
“Also recorded” adds a separate entry of the source.

How the values were obtained:
BRD9 = target: T1, BRD9 (Homo sapiens, UniProt Q9H8M2); test: BRD9 western blot in synovial sarcoma tumors in vivo (Example 11); set-up: species or system mice; settings: 1 mg/kg i.p. for 4 weeks
T1 construct: Tumors were lysed with 1×RIPA lysis buffer; from tissue; host or cells: SYO-1 xenograft tumours from BALB/c Nude mice
T1 sequence (Q9H8M2 1-597): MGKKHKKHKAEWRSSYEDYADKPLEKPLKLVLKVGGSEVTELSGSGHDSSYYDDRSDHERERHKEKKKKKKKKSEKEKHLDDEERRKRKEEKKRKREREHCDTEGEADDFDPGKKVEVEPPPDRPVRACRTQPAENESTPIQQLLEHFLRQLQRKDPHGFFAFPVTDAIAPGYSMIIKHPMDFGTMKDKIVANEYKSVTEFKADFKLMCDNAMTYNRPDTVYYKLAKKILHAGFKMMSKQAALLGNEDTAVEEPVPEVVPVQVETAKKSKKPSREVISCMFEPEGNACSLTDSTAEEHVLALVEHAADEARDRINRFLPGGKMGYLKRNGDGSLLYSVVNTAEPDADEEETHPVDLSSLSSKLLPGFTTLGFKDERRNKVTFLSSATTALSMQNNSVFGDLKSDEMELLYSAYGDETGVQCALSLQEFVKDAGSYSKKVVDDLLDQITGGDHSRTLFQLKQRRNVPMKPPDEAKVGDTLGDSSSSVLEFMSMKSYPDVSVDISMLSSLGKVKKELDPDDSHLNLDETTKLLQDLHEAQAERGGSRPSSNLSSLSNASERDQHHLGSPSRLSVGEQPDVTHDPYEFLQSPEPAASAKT
Experimental: Method: Mice were treated with D1, 1 mg/kg, i.p. for 4 weeks. Mice were then euthanized, and tumors were collected at 8 hours, 72 hours, and 168 hours post last dose. Tumors were lysed with 1x RIPA lysis buffer (Boston BioProducts, BP-115D) with protease and phosphatase protein inhibitor (Roche Applied Science #04906837001 & 05892791001). Equal amounts of lysate (30 μg) were loaded in 4-12% Bis-Tris Midi Protein Gels in 1×MOPS buffer; samples ran at 120 V for 120 minutes. Protein was transferred to membrane with TransBlot at 250 mA for 150 minutes, and then membranes were blocked with Odyssey blocking buffer for 1 hour at room temperature. Membranes were hybridized overnight in cold room with primary antibodies. Images acquired using Li-COR imaging system (Li-COR Biotechnology, Lincoln, Nebraska).

[1] = target: T2, Nanoluciferase-BRD9 fusion protein (Homo sapiens, UniProt Q9H8M2); test: SYO1 BRD9 NanoLuc degradation assay; type: cell-based; settings: 6 hours
T2 construct: expressed in transfected cells
T2 sequence (Q96SW2 whole entry partner, one chain of several, the tested form may be a part): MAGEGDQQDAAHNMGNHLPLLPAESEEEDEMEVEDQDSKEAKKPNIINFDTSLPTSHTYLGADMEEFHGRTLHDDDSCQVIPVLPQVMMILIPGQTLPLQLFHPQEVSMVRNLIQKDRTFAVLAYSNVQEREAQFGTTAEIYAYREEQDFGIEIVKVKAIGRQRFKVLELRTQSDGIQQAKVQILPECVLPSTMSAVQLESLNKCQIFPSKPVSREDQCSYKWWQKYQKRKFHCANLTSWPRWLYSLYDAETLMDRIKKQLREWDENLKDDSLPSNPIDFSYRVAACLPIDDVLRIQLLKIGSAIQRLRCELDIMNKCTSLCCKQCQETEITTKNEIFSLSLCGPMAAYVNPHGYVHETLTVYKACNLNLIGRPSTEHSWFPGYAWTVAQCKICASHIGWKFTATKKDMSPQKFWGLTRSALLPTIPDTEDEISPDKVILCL
Experimental: Procedure: A stable SYO-1 cell line expressing 3×FLAG-NLuc-BRD9 was generated. On day 0 cells were seeded in 30 μL media into each well of 384-well cell culture plates. The seeding density was 8000 cells/well. On day 1, cells were treated with 30 nL DMSO or 30 nL of 3-fold serially DMSO-diluted compounds (10 points in duplicates with 1 μM as final top dose). Subsequently plates were incubated for 6 hours in a standard tissue culture incubator and equilibrated at room temperature for 15 minutes. Nanoluciferase activity was measured by adding 15 μL of freshly prepared Nano-Glo Luciferase Assay Reagent (Promega N1130), shaking the plates for 10 minutes and reading the bioluminescence using an EnVision reader.
Results: The Inhibition % was calculated using the following formula: % Inhibition=100×(LumHC−LumSample)/(LumHC−LumLC). DMSO treated cells are employed as High Control (HC) and 1 μM of a known BRD9 degrader standard treated cells are employed as Low Control (LC).

SYO1 cells [2] = test: Cell cycle analysis (Click-iT Plus EdU flow cytometry); type: cell-based; settings: 200 nM or 1 μM, 8 or 13 days, compared to DMSO and lenalidomide
Experimental: (§1) Procedure: SYO1 cells were treated for 8 or 13 days with DMSO, a BRD9 degrader (Compound 1) at 200 nM or 1 μM, or an E3 ligase binder (lenalidomide) at 200 nM. Compounds were refreshed every 5 days. Cell cycle analysis was performed using the Click-iT™ Plus EdU Flow Cytometry Assay (Invitrogen). The apoptosis assay was performed using the Annexin V-FITC Apoptosis Detection Kit (Sigma A9210). Assays were performed according to the manufacturer's protocol.

[3] = system: non-synovial control cancer cell lines (293T, A549, G401); test: Growth of non-synovial control cancer cell lines (Example 2); type: cell-based
Experimental: (§2) Cells were treated with DMSO or the BRD9 degrader, Compound 1, at indicated concentrations, and proliferation was monitored from day 7 to day 14 by measuring confluency over time using an IncuCyte live cell analysis system (FIG. 4). Growth medium and compounds were refreshed every 3-4 days.
(§3) Cells were seeded into 12-well plates and treated with DMSO, 1 μM BRD9 inhibitor, Compound 2 (also known as BI-7273, see Martin et al, J Med Chem. 59 (10): 4462-4475 (2016); see structure of compound 2 below), or 1 μM BRD9 degrader, Compound 1.
(§4) The number of cells was optimized for each cell line. Growth medium and compounds were refreshed every 3-5 days. SYO1, Yamato, A549, 293T and HS-SY-II cells were fixed and stained at day 11. ASKA cells were fixed and stained at day 23. Staining was done by incubation with crystal violet solution (0.5 g Crystal Violet, 27 ml 37% Formaldehyde, 100 mL 10×PBS, 10 mL Methanol, 863 dH20 to 1 L) for 30 min followed by 3×washes with water and drying the plates for at least 24 h at room temperature. Subsequently plates were scanned on an Odyssey CLx Imaging system (FIG. 5).
(§5) Cells were seeded into 96-well ultra-low cluster plate (Costar, #7007) in 200 μL complete media and treated at day 2 with DMSO, Staurosporin, or BRD9 degrader, Compound 1, at indicated doses (FIG. 2C). Media and compounds were changed every 5 d and cell colonies were imaged at day 14.

[4] = system: synovial sarcoma cell lines (SYO1, HS-SY-II, and ASKA); test: Growth of synovial sarcoma cell lines, crystal violet day 14 (Example 3); type: cell-based; settings: daily treatment
Experimental: (§6) Procedure: Cells were seeded into 6-well or 12-well plates and were treated daily with a BRD9 degrader (Compound 1), a bromo-domain BRD9 binder (Compound 2), E3 ligase binder (lenalidomide), DMSO, or staurosporin (positive control for cell killing), at indicated concentrations. The number of cells was optimized for each cell line. Growth media was refreshed every 5 days. By day 14, medium was removed, cells were washed with PBS, and stained using 500 μL of 0.005% (w/v) crystal violet solution in 25% (v/v) methanol for at least 1 hour at room temperature. Subsequently plates were scanned on an Odyssey CLx Imaging system.

[5] = system: non-synovial control cancer cell lines (RD, HCT116, and Calu6); test: Growth of non-synovial control cancer cell lines, crystal violet day 14 (Example 3); type: cell-based; settings: daily treatment
Experimental: as §6

SYO1 cells [6] = test: Apoptosis assay (Annexin V-FITC); type: cell-based; settings: 200 nM or 1 μM, 8 days, compared to DMSO controls
Experimental: as §1

[7] = system: synovial sarcoma cell lines (SYO1, Yamato, HS-SY-II, and ASKA); test: Growth of synovial sarcoma cell lines (Example 2: IncuCyte confluency, crystal violet, colonies); type: cell-based; settings: 1 μM or indicated concentrations
Experimental: as §2, §3, §4, §5

Row | time after dose with complete degradation of BRD9 (BRD9) | BRD9 level in tumor (western blot) (BRD9; tumors 8, 72, 168 hours post last dose) | IC50 [1] [nM] | SMILES | numbers of cells in the S-phase of the cell cycle (SYO1 cells [2]) | inhibition of cell growth [3] | inhibition of cell growth [4] | inhibition of cell growth [5] | numbers of early- and late-apoptotic cells (SYO1 cells [6]) | inhibition of cell growth [7]
1 | up to 168 hours | complete degradation | 0.13 | COc1cc(-c2cn(C)c(=O)c3cnc(N4CCC4)cc23)cc(OC)c1CN1CCC(CN2CCC3(CC2)CN(c2ccc4c(c2)C(=O)N(C2CCC(=O)NC2=O)C4)C3)CC1 (racemic) [Compound D1, 3-[6-(7-[[1-([4-[6-(azetidin-1-yl)-2-methyl-1-oxo-2,7-naphthyridin-4-yl]-2,6-dimethoxyphenyl]methyl)piperidin-4-yl]methyl]-2,7-diazaspiro[3.5]nonan-2-yl)-1-oxo-3H-isoindol-2-yl]piperidine-2,6-dione] | – | – | – | – | – | –
2 | – | – | – | COc1cc(-c2cn(C)c(=O)c3cnccc23)cc(OC)c1CN(C)CC(=O)NCCOCCOCCNc1cccc2c1C(=O)N(C1CCC(=O)NC1=O)C2=O (stereo not shown) [Compound 1] | reduced numbers of cells in the S-phase | does not result in inhibition of the growth | inhibition of the growth of the cells; also recorded: most significant growth inhibition | did not result in inhibition of the growth | increased numbers of early- and late-apoptotic cells | inhibition of the growth of the cells
3 | – | – | – | COc1cc(-c2cn(C)c(=O)c3cnccc23)cc(OC)c1CN(C)C [Compound 2] | – | does not result in inhibition of the growth | inhibition of the growth of the cells | did not result in inhibition of the growth | – | inhibition of the growth of the cells
